# In the OligoGym collection:
# Values joined by “and” are separate entries in the source; they are usually repeats but may differ in a detail not shown here. Equal entries are not always repeated. After the bases stand the sugars from the 5' end (letter, count) and the backbone: PS all phosphorothioate, else s phosphorothioate and o phosphodiester by linkage. Methylation of C is not given here. e = 2'-O-(2-methoxyethyl) (MOE); k = constrained ethyl (cEt); d = 2'-deoxy (DNA)
# Molecular target: IRF4
# Details: ASO
Sequence,"target mRNA inhibition (SK-MEL-28, 4 µM)","target mRNA inhibition (MM.1R, 1 µM)",other results
"TAGCAGAGGTTCTACG (sugars k3 d10 k3, PS)",24%,–,–
"TAGCATGGATCCTGAG (sugars k3 d10 k3, PS)",0%,–,–
"TAGGACTAAGGACAGC (sugars k3 d10 k3, PS)",–,-5%,–
"TAGGCACATCAATGTT (sugars k3 d10 k3, PS)",–,12%,–
"TAGGTCATACCCTGGA (sugars k3 d10 k3, PS)",72%,–,–
"TAGTAGGTAAGATCTC (sugars k3 d10 k3, PS)",23%,–,–
"TAGTATGAGAAACGGC (sugars e1 k2 d9 k2 e2, PS)",–,38%,–
"TAGTATGAGAAACGGC (sugars k2 d9 e3 k2, PS)",–,37%,–
"TAGTATGAGAAACGGC (sugars k3 d10 k3, PS)",78%,–,"target mRNA inhibition (H929, 0.04 µM): 33% and 47%; target mRNA inhibition (KMS11, 0.2 µM): 65% and 85%"
"TAGTATGAGAAACGGC (sugars kdddddddddkekeke, PS)",–,32%,–
"TAGTATGAGAAACGGC (sugars kkdddddddddkekek, PS)",–,27%,–
"TAGTCGACAGCTAAAG (sugars k3 d10 k3, PS)",46%,–,–
"TAGTGCTGTGCAGACC (sugars k3 d10 k3, PS)",32%,–,–
"TAGTGTCGCCATGGCT (sugars k3 d10 k3, PS)",69%,–,–
"TATAACGGTGTTTCAG (sugars k3 d10 k3, PS)",–,36%,–
"TATACCAACGACAGCA (sugars k3 d10 k3, PS)",49%,–,–
"TATAGAATTAGGTGCT (sugars k3 d10 k3, PS)",40%,–,–
"TATAGCACTCTCCTAT (sugars k3 d10 k3, PS)",2%,–,–
"TATATAGAATTAGGTG (sugars k3 d10 k3, PS)",-16%,–,–
"TATCAAAGATCTCCAC (sugars k3 d10 k3, PS)",25%,–,–
"TATCAGATACACACCC (sugars k3 d10 k3, PS)",19%,–,–
"TATCAGGATCTCAAGG (sugars k3 d10 k3, PS)",6%,–,–
"TATCATCCGAAAAGAC (sugars k3 d10 k3, PS)",–,3%,–
"TATCCTGTAGTATGAG (sugars k3 d10 k3, PS)",–,42%,–
"TATGACCCAGTGCTCT (sugars k3 d10 k3, PS)",40%,–,–
"TATGAGAAACGGCCTG (sugars k3 d10 k3, PS)",45%,–,–
"TATTTATGAGCTTCCA (sugars k3 d10 k3, PS)",–,21%,–
"TATTTATGCCCTCGCT (sugars k3 d10 k3, PS)",26%,–,–

Sequence,"target mRNA inhibition (SK-MEL-28, 4 µM)","target mRNA inhibition (MM.1R, 1 µM)",other results
"TCAAAGCGCACCGCAG (sugars k3 d10 k3, PS)",43%,–,–
"TCAAATCTTCAACAGC (sugars k3 d10 k3, PS)",76%,–,–
"TCACACTGCCGTGATC (sugars k3 d10 k3, PS)",22%,–,–
"TCACAGAGCCAACTTA (sugars k3 d10 k3, PS)",-12%,–,–
"TCACGAGCACCTCAGA (sugars k3 d10 k3, PS)",36%,–,–
"TCACGCAGTGCACCTG (sugars k3 d10 k3, PS)",46%,–,–
"TCACTACCTGCAGCCA (sugars k3 d10 k3, PS)",–,6%,–
"TCAGAATGTTTCGACA (sugars k3 d10 k3, PS)",–,6%,–
"TCAGAATTTAGTTAGT (sugars k3 d10 k3, PS)",33%,–,–
"TCAGACAGTGCGCCCC (sugars k3 d10 k3, PS)",26%,–,–
"TCAGATGTCACTGATT (sugars k3 d10 k3, PS)",35%,–,–
"TCAGCAAGTGTCTTCC (sugars k3 d10 k3, PS)",66%,–,–
"TCAGTTACTCACGAGC (sugars k3 d10 k3, PS)",–,-3%,–
"TCAGTTTGTGAAGCAT (sugars k3 d10 k3, PS)",75% and 89%,–,–
"TCATAGCTAGTTCATT (sugars k3 d10 k3, PS)",52%,–,–
"TCATGTAAAGTCTGCT (sugars k3 d10 k3, PS)",–,21%,–
"TCCAAACCTTAAGCTA (sugars k3 d10 k3, PS)",37%,–,–
"TCCAAAGGGTTCAGTG (sugars k3 d10 k3, PS)",–,7%,–
"TCCACCTGCATCGAGA (sugars k3 d10 k3, PS)",47%,–,–
"TCCACTACCATATTGG (sugars k3 d10 k3, PS)",–,-29%,–
"TCCAGAAAATTCAGCT (sugars k4 d8 k4, PS)",26%,–,–
"TCCAGGAAAGGCCAAG (sugars k3 d10 k3, PS)",49%,–,–
"TCCAGGTGGCTCAGCA (sugars k4 d8 k4, PS)",34%,–,–
"TCCCACGAAGGGCAGT (sugars k3 d10 k3, PS)",6%,–,–
"TCCCTTAGGATAATAT (sugars k3 d10 k3, PS)",48%,–,–
"TCCGAGCTCGGCCCCC (sugars k3 d10 k3, PS)",–,-10%,–
"TCCGGCTTGTCGATGC (sugars k3 d10 k3, PS)",41%,–,–
